Values quoted from earlier work as cited in article PMC5963526 (Biochimica et biophysica acta, 2018).

Tests used:
[1] = test system: retina
[2] = test system: rats

| SMILES | protection of the retina from light damage [1] | protection against LIRD [2] |
| --- | --- | --- |
| CC1=C(/C=C/C(C)=C/C=C/C(C)=C\C(=O)O)C(C)(C)CCC1 [13-cis-retinoic acid] | protects the retina from light damage | – |
| CC(C)(C)[N+]([O-])=Cc1ccccc1 [PBN, a-phenyl-N-tert-butylnitrone] | – | complete protection |
